Where “and” joins values, the source holds several entries; their conditions need not be identical. Equal values may be shown once. Calls of active or inactive are those of the source.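 How the source made its calls: active means compounds giving half or more protection of infected cells from virus-caused growth loss, again on retest; inactive means the rest.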
System: CEM cells HIV-1 protection, formazan growth assay
Test: NCI AIDS Antiviral Assay
Details: for IC50: measured here: growth of uninfected CEM cells
Procedure, shortened: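 Human CEM cells, uninfected and HIV-1-infected, received five drug concentrations, and growth was read by soluble formazan assay. Compounds giving at least 50% protection were retested; reproducible 100% protection defined confirmed active.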

| Structure (SMILES) | EC50 | IC50 | outcome |
| --- | --- | --- | --- |
| CN(C)c1ncnc2c1ncn2C1OC(CO)C2NP(=O)(N(CCCl)CCCl)OC21 (stereo unspecified) | > 200 µM | > 200 µM | – |
| Nc1nc(N)c2cc(-c3ccccc3)cnc2n1 | > 200 µM | 15.8 µM | – |
| Cc1cn(C2CC(ON3C(=O)c4ccccc4C3=O)C(CO)O2)c(=O)[nH]c1=O (stereo unspecified) | 26.9 µM and > 200 µM | > 200 µM | – |
| O=C1Oc2ccccc2C(=O)/C1=C/N1C(=O)N/C(=C\c2ccccc2O)C1=O | > 200 µM | 123 µM | – |
| O=[As]c1ccc(C(=O)O)cc1 (stereo unspecified) | > 1170 µM | 245 µM | – |
| CCN(CC)c1ccc(N=Nc2ccc(-c3nc4ccc[n+](C)c4o3)cc2)cc1 | > 2.04 µM | > 2.04 µM | – |
| O=S(=O)(c1ccc(Br)cc1)S(=O)(=O)c1ccc(Br)cc1 | > 11.7 µM | > 11.7 µM | – |
| Nc1c(S(=O)(=O)O)[nH]c(=O)[nH]c1=O | > 200 µM | > 200 µM | – |
| CC1(C)C2CCC(N)(C2)C1N (stereo unspecified) | > 200 µM | > 200 µM | – |
| C=C1C(=O)OC2CC(C)C3C(OC(C)=O)CC(OC(C)=O)C3(C)CC12 (stereo unspecified) | > 97.7 µM | 6.76 µM | – |
| CN1C2=C(CC3=C1CC(C)(C)CC3=O)C(=O)CC(C)(C)C2 | > 100 µM | > 100 µM | – |
| Cc1ccc(S(=O)(=O)OCC2OC(CCCO)C/C([Si](C)(C)C)=C\CC2Cl)cc1 (stereo unspecified) | > 8.13 µM | > 8.13 µM | – |
| CC(C)(C)N1C(=O)[N+]2(CCCCC2)N=C1[O-] | > 4.47 µM | > 4.47 µM | – |
| CCC12CCCN3CCC4(C(=Nc5cc(OC)ccc54)CC1)C32 (stereo unspecified) | – | – | inactive |
| O=C(c1ccccc1)c1ccc(C(c2c(O)c3ccccc3oc2=O)c2c(O)c3ccccc3oc2=O)cc1 | > 200 µM | 34.7 µM | – |
| CC(C)CCCC(C)[C@H]1CC[C@H]2[C@@H]3CC[C@H]4C[C@@H](CCC=C(c5cc(Cl)c(OCc6ccccc6[N+](=O)[O-])c(C(=O)O)c5)c5cc(Cl)c(OCc6ccccc6[N+](=O)[O-])c(C(=O)O)c5)CC[C@]4(C)[C@H]3CC[C@]12C (stereo partly specified) | > 200 µM and 120 µM | > 200 µM and 166 µM | inactive |
| CSC(=S)Nc1cccc(C)n1 | > 200 µM | 102 µM | – |
| CS1(=O)=N/C(=N\C(=O)Nc2ccccc2)c2ccccc21 (stereo unspecified) | – | – | inactive |
| CCOC(=O)C(=Cc1ccc(C#N)cc1)C(=O)OCC | > 132 µM | 8.91 µM | – |
| CNc1cc(Cl)ccc1S(=O)(=O)c1ccccc1[N+](=O)[O-] | 5.37 µM | > 200 µM | – |
| NC(N)=NS(=O)(=O)c1ccc(Nc2c3ccccc3nc3c(C(=O)N4CCN(CCO)CC4)cccc23)cc1 | > 40.7 µM | > 40.7 µM | – |
| O=P(O)(O)c1ccc(-c2ccc(I)cc2)cc1 | > 200 µM | > 200 µM | – |

| Structure (SMILES) | EC50 | IC50 | outcome |
| --- | --- | --- | --- |
| CO/C(=N\N=C\c1cc(OC)ccc1OC)c1ccncc1 | > 24 µM | > 24 µM | – |
| S=c1nc(Oc2ccc(Cl)c(Cl)c2)[nH]c(=S)[nH]1 | > 23.4 µM | > 23.4 µM | – |
| Cc1cn(C2CC(O)C(CO[Si](C)(C)C(C)(C)C)OC2OC(C)C)c(=O)[nH]c1=O (stereo unspecified) | > 200 µM | 37.2 µM | – |
| COc1ccc(OC)c(C(Nc2ccc3cn[nH]c3c2)P(=O)(c2ccccc2)c2ccccc2)c1 (stereo unspecified) | – | – | inactive |
| COc1cccc(NC(=O)CC(=O)N2N=C(N(CCC#N)c3ccc(Cl)cc3)CC2c2ccccc2)c1 (stereo unspecified) | > 69.2 µM | > 69.2 µM | – |
| CC#CCCC1(CC)CCCN(C(=O)OC(C)C)C1OCC (stereo unspecified) | > 32.4 µM | > 32.4 µM | – |
| C[N+](C)(C)CC1CCCCCCCCCCC1=O (stereo unspecified) | 60.3 µM | 148 µM | – |
| N#CCCN(CCNc1ccccc1)C(=O)Nc1ccc(NC(=O)N(CCC#N)CCNc2ccccc2)cc1 | > 200 µM | > 200 µM | – |
| CCOC(=O)C1C(c2ccccc2)C(C(=O)OCC)C(O)(C(F)(F)F)OC1(O)C(F)(F)F (stereo unspecified) | – | – | inactive |
| CCOc1cc2c(cc1O)CC[C@@H]1[C@@H]2CC[C@]2(C)C(OS(=O)OC3CC[C@@H]4[C@H]5CCc6cc(O)c(OCC)cc6[C@@H]5CC[C@@]34C)CC[C@@H]12 (stereo partly specified) | > 2 µM | 0.537 µM | – |
| CC(=O)OCC1OC(n2ncc(=O)[nH]c2=O)C(OC(C)=O)C1OC(C)=O (stereo unspecified) | > 2 µM | 1.05 µM | – |
| OC1c2ccccc2[C@@H]2[C@H]1[C@@H](c1ccccc1)C1(Cc3ccccc3C1O)[C@H]2c1ccccc1 (stereo partly specified) | > 200 µM | 9.12 µM | – |
| Nc1ccccc1OCCCOc1ccccc1N | > 200 µM | 110 µM | – |
| N#CC(C(=O)Nc1ccccc1)C1=C(Cl)C(=O)c2ccccc2C1=O (stereo unspecified) | > 251 µM | 39.8 µM | – |
| CC(C)Oc1c(O)c2c3c(oc(=O)n3C=CC2c2ccccc2F)c1OC(C)C (stereo unspecified) | > 200 µM | 29.5 µM | – |
| COc1ccc(-n2c(=O)n(-c3ccccc3)c(=O)n2-c2ccc(OC)cc2)cc1 | > 200 µM | > 200 µM | – |
| CCOC(=O)/C=C/C(=O)O/C=C/[N+](=O)[O-] | 182 µM | > 200 µM | – |
| CCO/C(O)=c1/s/c(=C2/SC(=S)N(c3ccc(C)cc3)C2=O)n(-c2ccccc2)c1=N | > 1.58 µM | > 1.58 µM | – |
| CC1S(=O)C(C)S(=O)C(C)S1=O (stereo unspecified) | – | – | inactive |
| CCOc1cc2c(cc1Cc1ccc(OC)cc1)OCO2 | > 91.2 µM | 0.631 µM | – |
| C[S+](C)(=O)CCCS(=O)(=O)[O-] | > 200 µM | > 200 µM | – |
| [C-]#[O+].[C-]#[O+].[C-]#[O+].[Cr].c1ccc([PH+](CC[As](c2ccccc2)c2ccccc2)CC[As](c2ccccc2)c2ccccc2)cc1 | – | – | inactive |

| Structure (SMILES) | EC50 | IC50 | outcome |
| --- | --- | --- | --- |
| O=C1CSc2ccnc(=O)n21 | > 200 µM | > 200 µM | – |
| CC1c2c(Cl)nc3ccccc3c2Oc2c1c(Cl)nc1ccccc21 | > 14.1 µM | > 14.1 µM | – |
| O=C1C(=Cc2c(O)cc(O)cc2O)C(=O)c2ccccc21 | > 17.8 µM | > 17.8 µM | – |
| Cc1cnc([C@H]2CCC3[C@@H]4CC=C5C[C@@H](OC(=O)CCC(=O)O)CC[C@]5(C)C4CC[C@@]32C)s1 (stereo partly specified) | > 52.5 µM | 50.1 µM | – |
| COc1cc(OC)c(-c2oc3ccccc3c(=O)c2O)c(OC)c1 | – | – | inactive |
| COc1cc(/C=C(\C#N)c2ccccc2)cc(OC)c1 | > 19.5 µM | > 19.5 µM | – |
| N#Cc1c(-c2ccccc2)cc(-c2ccc(Cl)cc2)[nH]c1=S | > 200 µM | 33.9 µM | – |
| Cc1c(C(=O)O)c2cc3ccccc3cc2c(=O)n1C | > 200 µM | > 200 µM | – |
| CC(C)C1CCC2(C)CC3C(CO)CC(O)C3C(C)(O)C/C=C/12 (stereo unspecified) | – | – | inactive |
| Cc1nnc2scnn12 | – | – | inactive |
| Cc1ccccc1NC(=O)/C(=N\NC(N)=S)C(C#N)c1ccccc1 (stereo unspecified) | > 186 µM | > 186 µM | – |
| CC(=O)N/C(=C\c1ccc(Cc2nc3c([nH]2)C(=O)c2ccccc2C3=O)cc1)c1nc2c([nH]1)C(=O)c1ccccc1C2=O | > 12.6 µM | > 12.6 µM | – |
| NNC(=O)N/N=C1\C(=O)N(c2ccc(Cl)c(Cl)c2)C(=O)C(=O)C1c1nc2ccccc2s1 (stereo unspecified) | – | – | inactive |
| CCN(CC)C(=S)SC1C(=O)NC(=O)NC1=O | > 200 µM | > 200 µM | – |
| COc1ccc(C(C)NNC(=O)c2ccncc2)c(OC)c1 (stereo unspecified) | > 200 µM | 29.5 µM | – |
| C[PH+](C)CC[PH+](C)CC[PH+](C)C.[C-]#[O+].[C-]#[O+].[C-]#[O+].[Cr] | > 2.88 µM | > 2.88 µM | – |
| CCOP(=O)(OCC)C(F)(F)CC1CCCCC1 | > 200 µM | 170 µM | – |
| CC(C)(C)NC(=O)N1N=C(c2ccccc2)C1c1ccccc1 (stereo unspecified) | > 200 µM | 26.9 µM | – |
| O=C1CSCc2sccc21 | > 200 µM | > 200 µM | – |
| O=c1cc(NNc2ccc3ccccc3c2)[nH]c(=S)[nH]1 | > 200 µM | 38.9 µM | – |
| CCOC(=O)C1=c2[nH]c(O)c(C(=O)OCC)c2=NC1=O | > 5.13 µM | > 5.13 µM | – |
| CC(=O)O[C@H]1CC[C@H]2[C@@H]3CCC4=CC(=O)C=C[C@]4(O)[C@H]3CC[C@]12C | > 200 µM | 10.2 µM | – |

| Structure (SMILES) | EC50 | IC50 | outcome |
| --- | --- | --- | --- |
| O=C1C2=C(c3ccccc31)C(c1ccccc1Cl)NC(=S)N2 (stereo unspecified) | > 79.4 µM | 33.1 µM | – |
| CCOCc1cc(=O)c2c(O)cc3c(c2o1)CCC(C)(C)O3 | – | – | inactive |
| COc1ccc(C(=O)Oc2c(C#N)sc3c2c(=O)n(-c2ccccc2)c(=S)n3-c2ccccc2)cc1 | > 200 µM | 5.13 µM | – |
| CCCCNc1nc(N)nc(Nc2ccc(Br)cc2)c1N=O | > 55 µM | 23.4 µM | – |
| CC(=O)N(C)c1ccc2c(ccc[n+]2[O-])c1[N+](=O)[O-] | > 955 µM | > 955 µM | – |
| O=C1c2cccc3cccc(c23)C(=O)N1CCN1C(=O)c2cccc3cccc(c23)C1=O | > 200 µM | 30.2 µM | – |
| N#Cc1ccc([N+](=O)[O-])cc1NC(N)=S | > 224 µM | > 224 µM | – |
| COc1ccccc1/C=C/C(=O)N1CCC2(CC1)C(=O)N(C)CN2c1ccccc1 | > 200 µM | 51.3 µM | – |
| N#Cc1ccc(Oc2nc3ccccc3nc2-c2ccccc2)cc1 | > 200 µM | > 200 µM | – |
| CCC[CH2][Sn]1([CH2]CCC)[O]C(=O)c2cc(I)cc(I)c2[O]1 | – | – | inactive |
| COc1cc(CC2c3cc(OC)c(OC)cc3CCN2C)ccc1O (stereo unspecified) | > 380 µM | 138 µM | – |
| CCCCN(CCCC)C(=O)C(=O)C(C)C(=O)CC (stereo unspecified) | – | – | inactive |
| NC(=O)C(=CN1C(=O)/C(=C/c2ccc([N+](=O)[O-])cc2)SC1=S)C(N)=O | > 200 µM | 30.2 µM | – |
| CNc1ccc2[nH]c(=O)ccc2c1[N+](=O)[O-] | > 12 µM | > 12 µM | – |
| CCOC(=O)/C(SC#N)=C(/N)N1CCCC1 | > 200 µM | > 200 µM | – |
| CCC[n+]1nc2ccccc2c(=Nc2ccccc2[N+](=O)[O-])[n-]1 | > 23.4 µM | > 23.4 µM | – |
| COc1ccc(C2=NN(c3nsc4ccccc34)C(=O)CC2)cc1 | > 40.7 µM | > 40.7 µM | – |
| Cc1c(-c2ccccc2)oc2c(C(=O)OCCN3CCCCC3)cccc2c1=O | – | – | inactive |
| Cc1ccccc1C1=C(C(=O)Nc2ccc(Cl)c(Cl)c2)NC(=S)NC1N (stereo unspecified) | > 617 µM | > 617 µM | – |
| Cn1c2ccccc2n2c(=O)c(-c3ccc(O)cc3)nnc12 | > 200 µM | > 200 µM | – |
| O=c1nc(NC(c2ccccc2)(c2ccccc2)c2ccccc2)ccn1CCNCCn1ccc(NC(c2ccccc2)(c2ccccc2)c2ccccc2)nc1=O | > 9.33 µM | > 9.33 µM | – |

Source: PubChem BioAssay AID179 (DTP/NCI, 2004)
